From patent US20090124607A1, “Novel Bicyclic Sulfonamides for Use as Glucocorticoid Receptor Modulators in the Treatment of Inflammatory Diseases” (priority 2005, published 2009)

target: T1, recombinant human GR (Homo sapiens, UniProt P04150); experiment: Human Glucocorticoid Receptor (GR) Assay, fluorescence polarization (GRhuFL_FP_v2, GR-binders); assay type: binding
T1 construct: purchased Panvera/Invitrogen P2812 (kit P2893)
T1 sequence (P04150 1-777): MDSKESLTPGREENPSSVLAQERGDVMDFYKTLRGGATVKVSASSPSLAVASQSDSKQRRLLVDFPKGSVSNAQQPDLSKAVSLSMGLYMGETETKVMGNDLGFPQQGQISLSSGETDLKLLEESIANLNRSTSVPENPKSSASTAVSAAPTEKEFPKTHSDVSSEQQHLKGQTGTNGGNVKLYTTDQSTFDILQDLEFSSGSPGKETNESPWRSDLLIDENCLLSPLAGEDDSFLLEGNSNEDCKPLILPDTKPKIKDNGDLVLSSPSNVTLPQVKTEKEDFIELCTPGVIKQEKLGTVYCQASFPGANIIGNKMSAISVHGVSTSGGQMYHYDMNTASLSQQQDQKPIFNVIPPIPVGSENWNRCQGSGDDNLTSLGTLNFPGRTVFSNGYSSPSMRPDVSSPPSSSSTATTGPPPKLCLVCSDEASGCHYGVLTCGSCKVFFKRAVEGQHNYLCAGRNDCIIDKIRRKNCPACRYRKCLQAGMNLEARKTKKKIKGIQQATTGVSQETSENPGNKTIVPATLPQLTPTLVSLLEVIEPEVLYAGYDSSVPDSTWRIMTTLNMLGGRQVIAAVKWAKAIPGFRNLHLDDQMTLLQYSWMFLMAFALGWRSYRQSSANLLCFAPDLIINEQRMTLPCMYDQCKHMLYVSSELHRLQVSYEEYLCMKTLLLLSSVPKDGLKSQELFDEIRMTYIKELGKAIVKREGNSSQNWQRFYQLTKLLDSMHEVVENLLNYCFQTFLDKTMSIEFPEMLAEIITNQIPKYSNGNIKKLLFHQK
Description: Human Glucocorticoid Receptor (GR) Assay
The assay is based on a commercial kit from Panvera/Invitrogen (Part number P2893). The assay technology is fluorescence polarization. […] The GR and Stabilizing Peptide reagents are stored at −70° C. while the GS Red is stored at −20° C. Also included in the kit are 1M DTT (Panvera, Part number P2325, stored at −20° C.) and GR Screening buffer 10× (Panvera, Part number P2814, stored at −70° C. initially but once thawed stored at room temperature). Avoid repeated freeze/thaws for all reagents. The GR Screening buffer 10× comprises 100 mM potassium phosphate, 200 mM sodium molybdate, 1 mM EDTA and 20% DMSO.
0% control was 100% DMSO and 100% control was 10 μM Dexamethasone. Background solution (8 μL; assay buffer 10×, Stabilizing Peptide, DTT and ice cold MQ water) was added to the background wells. GS Red solution (7 μL; assay buffer 10×, Stabilizing Peptide, DTT, GS Red and ice cold water) was added to all wells except background wells. GR solution (7 μL; assay buffer 10×, Stabilizing Peptide, DTT, GR and ice cold water) was added to all wells. The plate was sealed and incubated in a dark at room temperature for 2 hours.

For `Cc1nn([C@H]2CCOC2)c(C)c1S(=O)(=O)N[C@@H](C)COc1cccc2c1cnn2-c1ccc(F)cc1` [Example 47, N-((1S)-2-{[1-(4-Fluorophenyl)-1H-indazol-4-yl]oxy}-1-methylethyl)-3,5-dimethyl-1-[(3S)-tetrahydrofuran-3-yl]-1H-pyrazole-4-sulfonamide], which IC50 is on record?
Its IC50 is 0.036 µM.

Which IC50 does the source give for `Cc1cc(C)c(S(=O)(=O)N[C@@H](C)CNc2cccc3c2cnn3-c2cccc(OC(F)(F)F)c2)c(C)c1` [Example 6, 2,4,6-Trimethyl-N-[(1S)-1-methyl-2-({1-[3-(trifluoromethoxy)phenyl]-1H-indazol-4-yl}amino)ethyl]benzenesulfonamide] here?
The IC50 was 0.015 µM.

With `Cc1cc(C)c(S(=O)(=O)N[C@@H](C)CNc2cccc3c2c(C)nn3-c2ccc(F)cc2)c(C)c1` [Example 52, N-((1S)-2-{[1-(4-Fluoro-phenyl)-3-methyl-1H-indazol-4-yl]amino}-1-methylethyl)-2,4,6-trimethylbenzenesulfonamide] as the molecule, how does the IC50 read?
The IC50 was 0.272 µM.

Which IC50 does the source give for `Cc1n[nH]c(C)c1S(=O)(=O)N[C@@H](C)COc1cccc2c1cnn2-c1cccnc1` [Example 42, 3,5-Dimethyl-N-{(1S)-1-methyl-2-[(1-pyridin-3-yl-1H-indazol-4-yl)oxy]ethyl}-1H-pyrazole-4-sulfonamide] here?
The IC50 was 4 µM.

How did the IC50 turn out when `Cc1cc(C)c(S(=O)(=O)N[C@@H](C)CNc2cccc3c2cnn3-c2ccc(F)nc2)c(C)c1` [Example 3, N-((1S)-2-{[1-(6-Fluoropyridin-3-yl)-1H-indazol-4-yl]amino}-1-methylethyl)-2,4,6-trimethylbenzenesulfonamide] was run?
The IC50 was 0.0023 µM.

`Cc1cc(C)c(S(=O)(=O)N[C@@H](C)CNc2cccc3c2cnn3-c2ccc(Cl)cc2)c(C)c1` [Example 22, N-((1S)-2-{[1-(4-Chlorophenyl)-1H-indazol-4-yl]amino}-1-methylethyl)-2,4,6-trimethylbenzenesulfonamide] was tested. Which IC50 did it give?
Its IC50 is 0.0035 µM.

How did the IC50 turn out when `Cc1cc(C)c(S(=O)(=O)NC[C@H](C)Nc2cccc3c2cnn3-c2ccc(F)cc2)c(C)c1` [Example 40, N-((2S)-2-{[1-(4-Fluorophenol)-1H-indazol-4-yl]amino}propyl)-2,4,6-trimethylbenzenesulfonamide] was run?
Its IC50 is 0.0064 µM.

`Cc1cc(C)c(S(=O)(=O)N[C@@H](C)CNc2ccc(F)c3c2cnn3-c2ccc(F)cc2)c(C)c1` [Example 33, N-((1S)-2-{[7-Fluoro-1-(4-fluoro-phenyl)-1H-indazol-4-yl]amino}-1-methylethyl)-2,4,6-trimethylbenzenesulfonamide] was tested. Which IC50 did it give?
The IC50 was 0.0055 µM.

For `Cc1nn(C(C)(C)C)c(C)c1S(=O)(=O)N[C@@H](C)COc1cccc2c1cnn2-c1ccc(F)cc1` [Example 43, 1-tert-Butyl-N-((1S)-2-[{1-(4-fluorophenyl)-1H-indazol-4-yl]oxy}-1-methylethyl)-3,5-dimethyl-1H-pyrazole-4-sulfonamide], which IC50 is on record?
The IC50 was 0.013 µM.

How did the IC50 turn out when `Cc1cc(C)c(S(=O)(=O)N[C@@H](C)CNc2cccc3c2cnn3-c2cccc(C(=O)O)c2)c(C)c1` [Example 18, 3-[4-({(2S)-2-[(2,4,6-Trimethylbenzenesulfonyl)amino]propyl}amino)-1H-indazol-1-yl]benzoic acid] was run?
The IC50 was 0.057 µM.

`Cc1cc(C)c(S(=O)(=O)N[C@@H](C)CNc2cccc3c2cnn3-c2cccc(C(F)(F)F)c2)c(C)c1` [Example 19, 2,4,6-Trimethyl-N-[(1S)-1-methyl-2-({1-[3-(trifluoromethyl)phenyl]-1H-indazol-4-yl}amino)ethyl]benzene sulfonamide] was tested. Which IC50 did it give?
The IC50 was 0.26 µM.

For `COc1cccc(-n2ncc3c(NC[C@H](C)NS(=O)(=O)c4c(C)cc(C)cc4C)cccc32)c1` [Example 8, N-((1S)-2-{[1-(3-Methoxyphenyl)-1H-indazol-4-yl]amino}-1-methylethyl)-2,4,6-trimethylbenzenesulfonamide], which IC50 is on record?
The IC50 was 0.0069 µM.

With `Cc1nn(C2CCCC2)c(C)c1S(=O)(=O)N[C@@H](C)CNc1cccc2c1cnn2-c1ccc(OC(F)(F)F)cc1` [Example 27, 1-Cyclopentyl-3,5-dimethyl-N-[(1S)-1-methyl-2-({1-[4-(trifluoromethoxy)phenyl]-1H-indazol-4-yl}amino)ethyl]-1H-pyrazole-4-sulfonamide] as the molecule, how does the IC50 read?
Its IC50 is 0.012 µM.

How did the IC50 turn out when `Cc1nn(C2CCCC2)c(C)c1S(=O)(=O)N[C@@H](C)COc1cccc2c1cnn2-c1cccnc1` [Example 49, 1-Cyclopentyl-3,5-dimethyl-N-{(1S)-1-methyl-2-[(1-pyridin-3-yl-1H-indazol-4-yl)oxy]ethyl}-1H-pyrazole-4-sulfonamide] was run?
The IC50 was 0.054 µM.

With `Cc1cc(C)c(S(=O)(=O)N[C@@H](C)CCc2cccc3c2cnn3-c2cncnc2)c(C)c1` [Example 54, 2,4,6-Trimethyl-N-[(1S)-1-methyl-3-(1-pyrimidin-5-yl-1H-indazol-4-yl)propyl]benzenesulfonamide] as the molecule, how does the IC50 read?
The IC50 was 0.017 µM.

`Cc1cc(C)c(S(=O)(=O)N[C@@H](C)CNc2c(C)ccc3c2cnn3-c2ccc(F)cc2)c(C)c1` [Example 23, N-((1S)-2-{[1-(4-Fluorophenyl)-5-methyl-1H-indazol-4-yl]amino}-1-methylethyl)-2,4,6-trimethylbenzenesulfonamide] was tested. Which IC50 did it give?
Its IC50 is 0.0073 µM.

How did the IC50 turn out when `Cc1nn([C@@H]2CCOC2)c(C)c1S(=O)(=O)N[C@@H](C)COc1cccc2c1cnn2-c1ccc(F)cc1` [Example 45, N-((1S)-2-{[1-(4-Fluorophenyl)-1H-indazol-4-yl]oxy}-1-methylethyl)-3,5-dimethyl-1-[(3R)-tetrahydrofuran-3-yl]-1H-pyrazole-4-sulfonamide] was run?
Its IC50 is 0.018 µM.

Which IC50 does the source give for `Cc1cc(C)c(S(=O)(=O)N[C@@H](C)CNc2c(F)ccc3c2cnn3-c2ccc(F)cc2)c(C)c1` [Example 32, N-((1S)-2-{[5-Fluoro-1-(4-fluorophenyl)-1H-indazol-4-yl]amino}-1-methylethyl)-2,4,6-trimethylbenzenesulfonamide] here?
Its IC50 is 0.0042 µM.

For `COCc1cccc(-n2ncc3c(NC[C@H](C)NS(=O)(=O)c4c(C)cc(C)cc4C)cccc32)c1` [Example 20, N-[(1S)-2-({1-[3-(Methoxymethyl)phenyl]-1H-indazol-4-yl}amino)-1-methylethyl]-2,4,6-trimethylbenzenesulfonamide], which IC50 is on record?
The IC50 was 0.0044 µM.

For `Cc1cc(C)c(S(=O)(=O)N[C@@H](C)CNc2cccc3c2cnn3-c2cncnc2)c(C)c1` [Example 15, 2,4,6-Trimethyl-N-{(1S)-1-methyl-2-[(1-pyrimidin-5-yl-1H-indazol-4-yl)amino]ethyl}benzenesulfonamide], which IC50 is on record?
Its IC50 is 0.0054 µM.

`Cc1nn(C2CCCC2)c(C)c1S(=O)(=O)N[C@@H](C)CNc1cccc2c1cnn2-c1ccc(F)nc1` [Example 26, 1-Cyclopentyl-N-((1S)-2-{[1-(6-fluoropyridin-3-yl)-1H-indazol-4-yl]amino}-1-methylethyl)-3,5-dimethyl-1H-pyrazole-4-sulfonamide] was tested. Which IC50 did it give?
The IC50 was 0.003 µM.

`Cc1cc(C)c(S(=O)(=O)NCC(C)(C)Nc2cccc3c2cnn3-c2ccc(F)cc2)c(C)c1` [Example 55, N-[2-[[1-(4-Fluorophenyl)indazol-4-yl]amino]-2-methylpropyl]-2,4,6-trimethyl-benzenesulfonamide] was tested. Which IC50 did it give?
Its IC50 is 0.024 µM.

`Cc1ccc(-n2ncc3c(NC[C@H](C)NS(=O)(=O)c4ccccc4)cccc32)cc1` [Example 51] was tested. Which IC50 did it give?
Its IC50 is 0.02 µM.

With `Cc1cc(C)c(S(=O)(=O)NC(C)CCc2cccc3c2cnn3-c2ccc(F)cc2)c(C)c1` (stereo not drawn) [Example 38, N-{3-[1-(4-Fluorophenyl)-1H-indazol-4-yl]-1-methylpropyl}-2,4,6-trimethylbenzenesulfonamide] as the molecule, how does the IC50 read?
The IC50 was 0.045 µM.

How did the IC50 turn out when `Cc1cc(C)c(S(=O)(=O)NC(COc2cccc3c2cnn3-c2ccc(F)cc2)C(F)(F)F)c(C)c1` (stereo not drawn) [Example 4] was run?
Its IC50 is 0.004 µM.

With `Cc1cc(C)c(S(=O)(=O)NC(C)CSc2cccc3c2cnn3-c2ccc(F)cc2)c(C)c1` (stereo not drawn) [Example 36, N-[2-[1-(4-Fluorophenyl)indazol-4-yl]sulfanyl-1-methylethyl]-2,4,6-trimethyl-benzenesulfonamide] as the molecule, how does the IC50 read?
The IC50 was 0.0076 µM.

Which IC50 does the source give for `COc1ccc(-n2ncc3c(NC[C@H](C)NS(=O)(=O)c4c(C)cc(C)cc4C)cccc32)cc1F` [Example 21, N-((1S)-2-{[1-(3-Fluoro-4-methoxy-phenyl)-1H-indazol-4-yl]amino}-1-methylethyl)-2,4,6-trimethylbenzenesulfonamide] here?
Its IC50 is 0.0027 µM.
